Values quoted from earlier work in patent US20060194234A1, “Methods for identifying small molecules that bind specific RNA structural motifs” (PTC Therapeutics, Inc., priority 2001, published 2006).

Columns and labels:
[1] = tested on: 60-mer from ribosomal RNA; conditions: literature statement in background
[2] = tested on: IIB (or RRE) region of HIV RNA; conditions: appears to result from competitive binding directly to the RRE RNA structural motif

Molecule | binding to a 60-mer from ribosomal RNA [1] | block of the binding of Rev to its viral recognition element in the IIB (or RRE) region of HIV RNA [2]
thiostreptone | binds tightly | –
NC[C@@H]1O[C@H](O[C@H]2[C@@H](O)[C@H](O[C@@H]3[C@@H](O)[C@H](N)C[C@H](N)[C@H]3O[C@H]3O[C@H](CN)[C@@H](O)[C@H](O)[C@H]3N)O[C@@H]2CO)[C@H](N)[C@@H](O)[C@@H]1O [neomycin B] | – | can block the binding
NC[C@H]1O[C@H](O[C@H]2[C@H](O)[C@@H](O[C@H]3O[C@H](CO)[C@@H](O)[C@H](N)[C@H]3O)[C@H](N)C[C@@H]2N)[C@H](N)C[C@@H]1O [tobramycin] | – | can block the binding
NC[C@@H]1O[C@H](O[C@H]2[C@@H](O)[C@H](O[C@@H]3[C@@H](O)[C@H](N)C[C@H](N)[C@H]3O[C@H]3O[C@H](CO)[C@@H](O)C[C@H]3N)O[C@@H]2CO)[C@H](N)[C@@H](O)[C@@H]1O[C@H]1O[C@H](CO)[C@@H](O)[C@H](O)[C@@H]1O [lividomycin A] | – | can block the binding
